Reference: a compilation of properties of binary mixtures (doi:10.1021/je050387r)

Assay: xn = mol fraction of the nth substance listed
Settings: 101 kPa

O + CCCC[n+]1ccn(C)c1.F[B-](F)(F)F
x1 = 1
Settings | viscosity [mPa·s]
303.15 K | 0.8
308.15 K | 0.72
313.15 K | 0.65
318.15 K | 0.6
323.15 K | 0.55
343.15 K | 0.4
353.15 K | 0.35

CCCC[n+]1ccn(C)c1.F[B-](F)(F)F + O
viscosity [mPa·s]
Settings | x2 = 0 | x2 = 0.1002 | x2 = 0.209 | x2 = 0.2984 | x2 = 0.4001 | x2 = 0.5014 | x2 = 0.6004 | x2 = 0.7 | x2 = 0.8 | x2 = 0.8999
303.15 K | – | 47.6 | 34.9 | 23.3 | 16.6 | 12 | 10 | 6.7 | 4.36 | 2.53
308.15 K | 58.2 | – | – | 19.4 | 13.6 | 10.5 | 8.7 | 5.85 | 3.8 | 2.21
313.15 K | – | 30.7 | 23.5 | 16.2 | 11.4 | – | – | 5.35 | 3.36 | 1.95
318.15 K | 37.8 | 25.7 | 19.6 | 14.1 | 9.7 | 7.8 | – | 4.53 | 2.99 | 1.73
323.15 K | 31.1 | 21.5 | – | 11.7 | – | 6.8 | 5.69 | 4.05 | 2.68 | 1.54
333.15 K | 21.5 | 15.4 | 12 | 8.6 | 6.2 | 5.28 | 4.75 | 3.29 | 2.19 | 1.28
343.15 K | 15.6 | 11.5 | 9 | – | 4.68 | 4.24 | – | – | 1.82 | –
353.15 K | 11.5 | – | 6.8 | 4.96 | 3.56 | 3.44 | – | 2.31 | 1.54 | 0.91
